Measured values taken from PubChem BioAssay (NCI).
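Grown in 96-well plates, cells were treated for 48 hours with each compound at five concentrations. Insufficient inhibition: endpoint recorded as highest concentration tested. Abbreviation: GI50, concentration required for 50% inhibition of growth. Definition used: TGI = concentration required for complete inhibition of growth.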

Experiments:
Assay in all cases: inhibition of tumour cell growth, NCI panel, 48 h
SK-OV-3 ovarian = test system: SK-OV-3 ovarian
HCT-15 colon = test system: HCT-15 colon
NCI-H226 lung = test system: NCI-H226 lung
SF-295 CNS = test system: SF-295 CNS
HCT-116 colon = test system: HCT-116 colon
HOP-62 NSCLC = test system: HOP-62 NSCLC
A549 NSCLC = test system: A549 NSCLC
ACHN renal = test system: ACHN renal
OVCAR-5 ovarian = test system: OVCAR-5 ovarian
SNB-75 CNS = test system: SNB-75 CNS

| Structure (SMILES) | GI50 (SK-OV-3 ovarian) [µM] | TGI (SK-OV-3 ovarian) [µM] | GI50 (HCT-15 colon) [µM] | TGI (HCT-15 colon) [µM] | GI50 (NCI-H226 lung) [µM] | TGI (NCI-H226 lung) [µM] | GI50 (SF-295 CNS) [µM] | TGI (SF-295 CNS) [µM] | GI50 (HCT-116 colon) [µM] | TGI (HCT-116 colon) [µM] | GI50 (HOP-62 NSCLC) [µM] | TGI (HOP-62 NSCLC) [µM] | GI50 (A549 NSCLC) [µM] | TGI (A549 NSCLC) [µM] | GI50 (ACHN renal) [µM] | TGI (ACHN renal) [µM] | GI50 (OVCAR-5 ovarian) [µM] | TGI (OVCAR-5 ovarian) [µM] | GI50 (SNB-75 CNS) [µM] | TGI (SNB-75 CNS) [µM] |
| --- | --- | --- | --- | --- | --- | --- | --- | --- | --- | --- | --- | --- | --- | --- | --- | --- | --- | --- | --- | --- |
| Nc1c([N+](=O)[O-])ncn1C1OC(CO)C(O)C1O (stereo not given) | > 100 | > 100 | > 100 | > 100 | > 100 | > 100 | > 100 | > 100 | > 100 | > 100 | > 100 | > 100 | > 100 | > 100 | > 100 | > 100 | > 100 | > 100 | > 100 | > 100 |
| COc1ccc(C2=NOC3=c4ccccc4=CSC3=C2c2ccccc2)cc1 | > 100 | > 100 | 22.3 | > 100 | 20.2 | 79.8 | 48.9 | > 100 | 12.8 | > 100 | 17.3 | > 100 | > 100 | > 100 | 73.7 | > 100 | 80.1 | > 100 | > 100 | > 100 |
| O=C(/C=C/c1ccccn1)c1ccccc1 | 16.8 | 30.5 | 2.66 | 12.9 | 15.2 | 29.7 | 15.7 | 32.2 | 1.49 | 3.77 | 10.2 | 22 | 14.4 | 29.4 | 2.44 | 6.2 | 6.52 | 24.1 | 5.57 | 21 |
| COc1cc([N+](=O)[O-])c(S(=O)(=O)O)cc1-[n+]1nc(C(=O)Nc2ccccc2)nn1-c1ccc([N+](=O)[O-])c(S(=O)(=O)[O-])c1 | – | > 100 | – | > 100 | – | > 100 | – | > 100 | – | > 100 | – | > 100 | – | > 100 | – | > 100 | – | > 100 | – | > 100 |
| COc1cc(-c2ccc[nH]2)[nH]c1/C=C1\N=C(C)C(C(=O)NC(C)C)=C1C | 10.7 | 22.8 | 2.08 | 13.5 | 3.77 | 20.4 | 2.9 | 11.4 | 1.52 | 4.25 | 3.77 | 15.8 | 2.94 | 10.5 | 3.59 | 13.3 | 2.97 | 17.3 | 4.94 | 17.2 |
| O=C(N[C@H]1CC2(C=C(I)C(=O)C(I)=C2)OC1=O)OCc1ccccc1 | – | > 100 | – | 44.2 | – | 90.3 | – | 37.3 | – | 29.6 | – | 45.6 | – | > 100 | – | 32.8 | – | 33.2 | – | 38.2 |
| COC(=O)C1C(=O)NC2(C)CC1c1ccccc1O2 (stereo not given) | – | > 100 | – | > 100 | – | > 100 | – | > 100 | – | > 100 | – | > 10 | – | > 100 | – | > 100 | – | > 100 | – | > 100 |
| COC(=O)c1sc(=S)c2sc(C(=O)OC)c(C(=O)OC)c2c1C(=O)OC | > 100 | > 100 | 38 | > 100 | 42 | > 100 | 39.3 | > 100 | 45 | > 100 | 59.7 | > 100 | 51.2 | > 100 | 40.3 | > 100 | 92.2 | > 100 | 52 | > 100 |
